Results taken from patent US8618046B2, “Treatment of atherosclerosis with cholesterol ester transport protein mimotopes” (Affiris AG, priority 2007, dated 2013).
Entries after “also recorded” stand apart in the source; their conditions may differ. Where no end group is shown, it is not given here.

Assays:
[1] = test system: monoclonal antibody “Frida”; assay: In vitro inhibition (competition) ELISA with mAb Frida on coated original CETP epitope; assay type: binding, mouse; conditions: for inhibition ELISA signal, first value column / inhibition ELISA signal, second value column: FIG. 18b, column without head; for inhibition ELISA signal, first value column / inhibition ELISA signal, second value column / inhibition ELISA signal, high / inhibition ELISA signal, low / inhibition ELISA signal, 2 μg peptide / inhibition ELISA signal, 20 μg peptide: detection αIgG1; for inhibition ELISA signal, high / inhibition ELISA signal, low / inhibition ELISA signal, 2 μg peptide / inhibition ELISA signal, 20 μg peptide: 2.5 ng mAb Frida; for inhibition ELISA signal, high: high peptide amount; for inhibition ELISA signal, low: low peptide amount; for inhibition in in vitro competition ELISA, mAb “Frida” (in words): monoclonal antibodies “Frida” and, where stated, “James”; for inhibition ELISA signal, 2 μg peptide / inhibition ELISA signal, 20 μg peptide: coat 1 μM peptide
Procedure: Different amounts of peptides (2 and 20 μg, as indicated in the respective figures) derived from Phage Display were incubated with the monoclonal antibody that was used for the screening procedure. Peptides diminishing subsequent binding of the antibody to the original CETP epitope (C-terminal 16 amino acids of CETP protein) coated on ELISA plates were considered as inhibiting. (Results see i.a. FIGS. 19a to 19c)

irrelevant peptide-BSA = assay: Titer to irrelevant peptide in sera of immunised animals (peptide ELISA); assay type: in vivo, mouse; conditions: Table 1, mice, sera 2 weeks after 3rd injection
Procedure: Balb/c mice/30 μg Peptide, 2 injections in 2 week intervals. S3=2 weeks after 3rd injection. Alum as adjuvant. Titers against original epitope (p4073) induced by injection of mimotopes. Well coating: 50 μl of 1 μM p4073-BSA or 1 μg/ml activated KLH. Detection: αIgG:
Subcutaneous injections in the flank were performed in week 1, week 3 and week 7 with 30 μg peptide-KLH per mouse. Intradermal injections in the ear were performed in week 1, week 3 and week 6 with 10 μg peptide-KLH per mouse. Sera were taken 2 weeks after the 3rd injection. Vaccine formulation with Alum (always 1 mg per mouse): up to 250 μl, injected into one flank. The Alum formulation with 1 ml per mouse (500 μl into each flank) was in 1×PBS as buffer.
Vaccine formulation with Gerbu Adjuvant 100 (Gerbu Cat. Nr. #3100; always 50 μl adjuvant per mouse): 200 μl, 100 μl injected into each flank comprising 1×HEPES as buffer.
Female Balb/c mice, five mice per group, were subcutaneously immunized with 30 μg peptide coupled to KLH. Control groups were administered KLH or C-[…] (SEQ ID NO. 147). As adjuvant alum was used. […] The in vitro ELISA assay to determine the antibody titer was performed with pooled sera after two vaccinations in a two week interval (S2; see FIGS. 7a to 7d). The wells of the ELISA plate were coated with KLH (positive control), mimotope-BSA conjugate, C-[…] (SEQ ID NO. 147) and a irrelevant peptide-BSA conjugate (negative control). The detection was performed with anti-mouse IgG.

[2] = FIG. 18a, coat 1 μM 4073 peptide

Substance: C-PAHVYIDWLQSLS (N-terminal cysteine; CETP mimotope) [p4629]
- inhibition ELISA signal, first value column ([1]; coat 1 μM 4073 peptide): 0.313
- inhibition ELISA signal, second value column ([1]; coat 1 μM 4073 peptide): 0.118

Substance: p4188-KLH: F3-38 C-GFLDSLM coupled to KLH (CGFLDSLM; also: coupled to KLH)
- titer, p irrelevant (irrelevant peptide-BSA; Alum s.c. (30 μg peptide)): no titer
- titer, p irrelevant (irrelevant peptide-BSA; KLH/Alum i.d. (10 μg peptide)): no titer

Substance: C-AAFPAHLLADAAQALA (N-terminal Cys; CETP mimotope) [p4434]
- inhibition ELISA signal, high ([1]; FIG. 18c, coat 1 μM 4073): 1.461
- inhibition ELISA signal, low ([1]; FIG. 18c, coat 1 μM 4073): 1.74

Substance: C-FGFPEHLLVDFLQS [reference compound]
- inhibition in in vitro competition ELISA, mAb “Frida” (in words) [1]: not inhibiting in vitro

Substance: C-GFPEHLLVDFLQSLS (N-terminal Cys) [reference compound]
- inhibition in in vitro competition ELISA, mAb “Frida” (in words) [1]: inhibiting in vitro

Substance: C-FPEHLLVDFLQSL (N-terminal Cys) [reference compound]
- inhibition in in vitro competition ELISA, mAb “Frida” (in words) [1]: not inhibiting in vitro

Substance: C-AAAPAHLLVDAAQAAA (N-terminal Cys; CETP mimotope) [p4437]
- inhibition ELISA signal, high ([1]; FIG. 18c, coat 1 μM 4073): 1.674
- inhibition ELISA signal, low ([1]; FIG. 18c, coat 1 μM 4073): 1.84

Substance: C-FGFPAHVFIDWLQ (N-terminal cysteine; CETP mimotope) [p4631]
- inhibition ELISA signal, first value column ([1]; coat 1 μM 4073 peptide): 2.111
- inhibition ELISA signal, second value column ([1]; coat 1 μM 4073 peptide): 2.147

Substance: FGFPAHVFIDWLQSLN-C [p5068]
- inhibition ELISA signal, first value column ([1]; coat 1 μM 4073 peptide): 0.757
- inhibition ELISA signal, second value column ([1]; coat 1 μM 4073 peptide): 0.271

Substance: C-GFKPAHVFIDWLQSLS (N-terminal cysteine; CETP mimotope) [p4479]
- inhibition ELISA signal, high [1, 2]: 1.591
- inhibition ELISA signal, low [1, 2]: 2.165

Substance: C-FGFPSHIIIDWLQSLS (N-terminal Cys; CETP mimotope) [p4432]
- inhibition ELISA signal, high ([1]; FIG. 18c, coat 1 μM 4073): 0.096
- inhibition ELISA signal, low ([1]; FIG. 18c, coat 1 μM 4073): 0.635

Substance: FGFPAHVYIDWLQSLS-C (C-terminal cysteine; CETP mimotope) [p5067]
- inhibition ELISA signal, first value column ([1]; coat 1 μM 4073 peptide): 0.563
- inhibition ELISA signal, second value column ([1]; coat 1 μM 4073 peptide): 0.217

Substance: C-FGFPSHLIIDWLQSLS (N-terminal Cys; CETP mimotope) [p4325]
- inhibition ELISA signal, 2 μg peptide ([1]; FIG. 10b): 0.42
- inhibition ELISA signal, 20 μg peptide ([1]; FIG. 10b): 0.1

Substance: C-FKPAHVFIDWLQSLS (N-terminal cysteine; CETP mimotope) [p4478]
- inhibition ELISA signal, high [1, 2]: 1.206
- inhibition ELISA signal, low [1, 2]: 2.231

Substance: C-FGFPAHFSIDWLQSLS (N-terminal cysteine; CETP mimotope) [p4475]
- inhibition ELISA signal, high [1, 2]: 1.429
- inhibition ELISA signal, low [1, 2]: 2.211

Substance: p4181-KLH: F3-6 C-NFLKTLS coupled to KLH (CNFLKTLS; also: coupled to KLH)
- titer, p irrelevant (irrelevant peptide-BSA; Alum s.c. (30 μg peptide)): no titer
- titer, p irrelevant (irrelevant peptide-BSA; KLH/Alum i.d. (10 μg peptide)): no titer

Substance: C-FGFPAHVSIDWLQSLS (N-terminal cysteine; CETP mimotope) [Fr12/3/84 ext2]
- inhibition in in vitro competition ELISA, mAb “Frida” (in words) [1]: significant inhibition; also recorded: Strongly inhibiting

Substance: C-FPEHLLVDFLQSLS (N-terminal Cys) [reference compound]
- inhibition in in vitro competition ELISA, mAb “Frida” (in words) [1]: inhibiting in vitro

Substance: C-FGFPAHVFIDWLQSLN (N-terminal cysteine; CETP mimotope) [p4474]
- inhibition ELISA signal, high [1, 2]: 0.179
- inhibition ELISA signal, low [1, 2]: 1.452

Substance: C-FGFPSHLIIEWLQSLS (N-terminal Cys; CETP mimotope) [p4433]
- inhibition ELISA signal, high ([1]; FIG. 18c, coat 1 μM 4073): 0.672
- inhibition ELISA signal, low ([1]; FIG. 18c, coat 1 μM 4073): 1.114

Substance: C-DFGFPAHVFIDWLQSLN (N-terminal cysteine; CETP mimotope) [p4818]
- inhibition ELISA signal, first value column ([1]; coat 1 μM 4073 peptide): 0.332
- inhibition ELISA signal, second value column ([1]; coat 1 μM 4073 peptide): 0.091

Substance: C-FGFPAHVFIDWLQSLS [p4361]
- inhibition ELISA signal, 2 μg peptide ([1]; FIG. 10a): 0.82
- inhibition ELISA signal, 20 μg peptide ([1]; FIG. 10a): 0.16
